Tested on: 857933-349-R-J2-PDC complex spheroids, viability
Assay: Anticancer human tumor 857933-349-R-J2-PDC patient-derived colon adenocarcinoma cell line growth inhibition [GQUAD]
Conditions: for IC50: curve of first compound; for viability, T/C: stronger effect = lower value
In short: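 Tumor cells were grown as complex spheroids with HUVEC endothelial cells and mesenchymal stem cells as stroma. G-quadruplex stabilizers were combined with targeted agents over half-log dilutions from near the clinical Cmax, or from 10 microM.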

[1] = second compound 0.0316 µM, first compound 0.0316 µM
[2] = second compound 0.0316 µM, first compound 0.1 µM
[3] = second compound 0.0316 µM, first compound 0.316 µM
[4] = second compound 0.0316 µM, first compound 1 µM
[5] = second compound 0.0316 µM, first compound 3.16 µM
[6] = second compound 0.0316 µM, first compound 10 µM
[7] = second compound 0.1 µM, first compound 0.0316 µM
[8] = second compound 0.1 µM, first compound 0.1 µM
[9] = second compound 0.1 µM, first compound 0.316 µM
[10] = second compound 0.1 µM, first compound 1 µM
[11] = second compound 0.1 µM, first compound 3.16 µM
[12] = second compound 0.1 µM, first compound 10 µM
[13] = second compound 0.316 µM, first compound 0.0316 µM
[14] = second compound 0.316 µM, first compound 0.1 µM
[15] = second compound 0.316 µM, first compound 0.316 µM
[16] = second compound 0.316 µM, first compound 1 µM
[17] = second compound 0.316 µM, first compound 3.16 µM
[18] = second compound 0.316 µM, first compound 10 µM
[19] = second compound 1 µM, first compound 0.0316 µM
[20] = second compound 1 µM, first compound 0.1 µM
[21] = second compound 1 µM, first compound 0.316 µM
[22] = second compound 1 µM, first compound 1 µM
[23] = second compound 1 µM, first compound 3.16 µM
[24] = second compound 1 µM, first compound 10 µM
[25] = second compound 3.16 µM, first compound 0.0316 µM
[26] = second compound 3.16 µM, first compound 0.1 µM
[27] = second compound 3.16 µM, first compound 0.316 µM
[28] = second compound 3.16 µM, first compound 1 µM
[29] = second compound 3.16 µM, first compound 3.16 µM
[30] = second compound 3.16 µM, first compound 10 µM
[31] = second compound 10 µM, first compound 0.0316 µM
[32] = second compound 10 µM, first compound 0.1 µM
[33] = second compound 10 µM, first compound 0.316 µM
[34] = second compound 10 µM, first compound 1 µM
[35] = second compound 10 µM, first compound 3.16 µM
[36] = second compound 10 µM, first compound 10 µM
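Note: spheroids exposed to compounds for one week before readout.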
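Throughout, for viability, T/C: percent viability relative to vehicle DMSO wells taken as 100%.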

Question: With `Cc1cccc(N(C)C(=O)C2C(O)CCN2c2nc(C)cc(C(F)(F)F)c2C#N)c1` (stereo unspecified) + Cc1cnc(CNC(=O)c2c(=O)c3ccc(N4CCCN(C)CC4)nc3n3c2sc2ccccc23)cn1 as the compound, how does the IC50 (second compound 0.0316 µM) read?
Answer: > 10000 nM

Question: And the IC50 (second compound 0.1 µM)?
Answer: > 10000 nM

Question: And the IC50 (second compound 0.316 µM)?
Answer: < 31.6 nM

Question: What about the IC50 (second compound 1 µM) of the same compound?
Answer: < 31.6 nM

Question: What about the IC50 (second compound 3.16 µM) of the same compound?
Answer: < 31.6 nM

Question: And the IC50 (second compound 10 µM)?
Answer: < 31.6 nM

Question: And the viability, T/C [1]?
Answer: 92%

Question: And the viability, T/C [2]?
Answer: 88.2%

Question: What about the viability, T/C [3] of the same compound?
Answer: 94.4%

Question: What about the viability, T/C [4] of the same compound?
Answer: 82.3%

Question: What about the viability, T/C [5] of the same compound?
Answer: 95.1%

Question: What about the viability, T/C [6] of the same compound?
Answer: 77.6%

Question: And the viability, T/C [7]?
Answer: 70.8%

Question: And the viability, T/C [8]?
Answer: 73.3%

Question: What about the viability, T/C [9] of the same compound?
Answer: 62.9%

Question: And the viability, T/C [10]?
Answer: 58.8%

Question: And the viability, T/C [11]?
Answer: 74.5%

Question: What about the viability, T/C [12] of the same compound?
Answer: 64.1%

Question: What about the viability, T/C [13] of the same compound?
Answer: 24.6%

Question: What about the viability, T/C [14] of the same compound?
Answer: 29.8%

Question: And the viability, T/C [15]?
Answer: 27.1%

Question: What about the viability, T/C [16] of the same compound?
Answer: 23.4%

Question: And the viability, T/C [17]?
Answer: 24.2%

Question: And the viability, T/C [18]?
Answer: 22.7%

Question: And the viability, T/C [19]?
Answer: 4.6%

Question: What about the viability, T/C [20] of the same compound?
Answer: 7.14%

Question: And the viability, T/C [21]?
Answer: 5.51%

Question: And the viability, T/C [22]?
Answer: 4.02%

Question: What about the viability, T/C [23] of the same compound?
Answer: 4.11%

Question: And the viability, T/C [24]?
Answer: 3.8%

Question: And the viability, T/C [25]?
Answer: 2.72%

Question: What about the viability, T/C [26] of the same compound?
Answer: 2.17%

Question: What about the viability, T/C [27] of the same compound?
Answer: 1.95%

Question: And the viability, T/C [28]?
Answer: 2.02%

Question: And the viability, T/C [29]?
Answer: 2.19%

Question: And the viability, T/C [30]?
Answer: 1.89%

Question: What about the viability, T/C [31] of the same compound?
Answer: 2.6%

Question: What about the viability, T/C [32] of the same compound?
Answer: 2.28%

Question: What about the viability, T/C [33] of the same compound?
Answer: 2.23%

Question: And the viability, T/C [34]?
Answer: 1.9%

Question: What about the viability, T/C [35] of the same compound?
Answer: 1.89%

Question: And the viability, T/C [36]?
Answer: 0.69%

Question: Which IC50 (second compound 0.0316 µM) does the source give for `O=C(NO)c1cnc(N2CCN(S(=O)(=O)c3ccc4ccccc4c3)CC2)nc1` + CN(C)c1ccc(Nc2c3ccc(NC(=O)CCN4CCCC4)cc3nc3cc(NC(=O)CCN4CCCC4)ccc23)cc1 here?
Answer: 1480 nM

Question: What about the IC50 (second compound 0.1 µM) of the same compound?
Answer: 1510 nM

Question: And the IC50 (second compound 0.316 µM)?
Answer: 1310 nM

Question: And the IC50 (second compound 1 µM)?
Answer: 1230 nM

Question: And the IC50 (second compound 3.16 µM)?
Answer: 1130 nM

Question: And the IC50 (second compound 10 µM)?
Answer: 658 nM

Question: And the viability, T/C [1]?
Answer: 106%

Question: And the viability, T/C [2]?
Answer: 100%

Question: And the viability, T/C [3]?
Answer: 101%

Question: What about the viability, T/C [4] of the same compound?
Answer: 75.1%

Question: And the viability, T/C [5]?
Answer: 0.74%

Question: What about the viability, T/C [6] of the same compound?
Answer: 0.27%

Question: What about the viability, T/C [7] of the same compound?
Answer: 101%

Question: And the viability, T/C [8]?
Answer: 99.3%

Question: What about the viability, T/C [9] of the same compound?
Answer: 93.8%

Question: And the viability, T/C [10]?
Answer: 77.1%

Question: What about the viability, T/C [11] of the same compound?
Answer: 0.65%

Question: And the viability, T/C [12]?
Answer: 0.57%

Question: What about the viability, T/C [13] of the same compound?
Answer: 101%

Question: And the viability, T/C [14]?
Answer: 100%

Question: What about the viability, T/C [15] of the same compound?
Answer: 93%

Question: What about the viability, T/C [16] of the same compound?
Answer: 64.9%

Question: And the viability, T/C [17]?
Answer: 1.11%

Question: And the viability, T/C [18]?
Answer: 0.38%

Question: What about the viability, T/C [19] of the same compound?
Answer: 97.2%

Question: What about the viability, T/C [20] of the same compound?
Answer: 97%

Question: What about the viability, T/C [21] of the same compound?
Answer: 92.9%

Question: And the viability, T/C [22]?
Answer: 60.7%

Question: What about the viability, T/C [23] of the same compound?
Answer: 0.83%

Question: What about the viability, T/C [24] of the same compound?
Answer: 0.36%

Question: And the viability, T/C [25]?
Answer: 89%

Question: What about the viability, T/C [26] of the same compound?
Answer: 80.1%

Question: What about the viability, T/C [27] of the same compound?
Answer: 92.4%

Question: And the viability, T/C [28]?
Answer: 55.7%

Question: What about the viability, T/C [29] of the same compound?
Answer: 1%

Question: And the viability, T/C [30]?
Answer: 0.3%

Question: And the viability, T/C [31]?
Answer: 66.2%

Question: And the viability, T/C [32]?
Answer: 68.2%

Question: And the viability, T/C [33]?
Answer: 68.5%

Question: And the viability, T/C [34]?
Answer: 40%

Question: What about the viability, T/C [35] of the same compound?
Answer: 0.55%

Question: What about the viability, T/C [36] of the same compound?
Answer: 0.71%

Question: How did the IC50 (second compound 0.0316 µM) turn out when `COc1cc(C2c3cc4c(cc3C(OC3OC5COC(C)OC5C(O)C3O)C3COC(=O)C23)OCO4)cc(OC)c1O` (stereo unspecified) + CN(C)c1ccc(Nc2c3ccc(NC(=O)CCN4CCCC4)cc3nc3cc(NC(=O)CCN4CCCC4)ccc23)cc1 was run?
Answer: 6110 nM

Question: What about the IC50 (second compound 0.1 µM) of the same compound?
Answer: 6680 nM

Question: What about the IC50 (second compound 0.316 µM) of the same compound?
Answer: 5700 nM

Question: And the IC50 (second compound 1 µM)?
Answer: 5970 nM

Question: And the IC50 (second compound 3.16 µM)?
Answer: 5780 nM

Question: What about the IC50 (second compound 10 µM) of the same compound?
Answer: 5770 nM

Question: What about the viability, T/C [1] of the same compound?
Answer: 98.2%

Question: What about the viability, T/C [2] of the same compound?
Answer: 95.4%

Question: And the viability, T/C [3]?
Answer: 80.3%

Question: What about the viability, T/C [4] of the same compound?
Answer: 79.3%

Question: What about the viability, T/C [5] of the same compound?
Answer: 58.8%

Question: What about the viability, T/C [6] of the same compound?
Answer: 42.1%

Question: What about the viability, T/C [7] of the same compound?
Answer: 96.3%

Question: And the viability, T/C [8]?
Answer: 102%

Question: And the viability, T/C [9]?
Answer: 84.3%

Question: What about the viability, T/C [10] of the same compound?
Answer: 76.3%

Question: What about the viability, T/C [11] of the same compound?
Answer: 59.6%

Question: What about the viability, T/C [12] of the same compound?
Answer: 44.8%

Question: And the viability, T/C [13]?
Answer: 102%

Question: And the viability, T/C [14]?
Answer: 95.8%

Question: What about the viability, T/C [15] of the same compound?
Answer: 79.1%

Question: And the viability, T/C [16]?
Answer: 70.2%

Question: What about the viability, T/C [17] of the same compound?
Answer: 60.2%

Question: And the viability, T/C [18]?
Answer: 41.8%

Question: And the viability, T/C [19]?
Answer: 101%

Question: And the viability, T/C [20]?
Answer: 89.6%

Question: What about the viability, T/C [21] of the same compound?
Answer: 83.3%

Question: What about the viability, T/C [22] of the same compound?
Answer: 68.4%

Question: And the viability, T/C [23]?
Answer: 61.6%

Question: What about the viability, T/C [24] of the same compound?
Answer: 41.6%

Question: And the viability, T/C [25]?
Answer: 90.8%

Question: What about the viability, T/C [26] of the same compound?
Answer: 81.2%

Question: What about the viability, T/C [27] of the same compound?
Answer: 84.6%

Question: What about the viability, T/C [28] of the same compound?
Answer: 71.8%

Question: And the viability, T/C [29]?
Answer: 60.9%

Question: What about the viability, T/C [30] of the same compound?
Answer: 40.3%

Question: And the viability, T/C [31]?
Answer: 74.4%

Question: What about the viability, T/C [32] of the same compound?
Answer: 76.9%

Question: And the viability, T/C [33]?
Answer: 71%

Question: What about the viability, T/C [34] of the same compound?
Answer: 67%

Question: And the viability, T/C [35]?
Answer: 58.2%

Question: What about the viability, T/C [36] of the same compound?
Answer: 42.7%
